Measurements as given in US5391540A, “Substituted pyridine compounds” (Rohm and Haas Company, priority 1993, dated 1995).

Key:
Format in all cases: in vivo
[1] = system: Morningglory; assay: Pre-emergent herbicidal activity (Table A); conditions: Ipomoea, pre-emergence, Mogl, 11.2 kg/ha, 10-14 days, read-out: herbicidal rating (% inhibition)
In short: (§1)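 Seeds or perennial propagules set on compacted topsoil, then covered with soil mixed with a known amount of test compound applied in acetone or water carrier. Ratings assigned on a scale based on percent inhibition of each species.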

[2] = system: Barnyardgrass; assay: Pre-emergent herbicidal activity (Table A); conditions: Echinochloa crus-galli, pre-emergence, Bygr, 11.2 kg/ha, 10-14 days, read-out: herbicidal rating (% inhibition)
In short: as §1

[3] = system: Cocklebur; assay: Pre-emergent herbicidal activity (Table A); conditions: Xanthium strumarium, pre-emergence, Cobu, 11.2 kg/ha, 10-14 days, read-out: herbicidal rating (% inhibition)
In short: as §1

[4] = system: Downy Brome; assay: Pre-emergent herbicidal activity (Table A); conditions: Bromus tectorum, pre-emergence, Dobr, 11.2 kg/ha, 10-14 days, read-out: herbicidal rating (% inhibition)
In short: as §1

[5] = system: Yellow Nutsedge; assay: Pre-emergent herbicidal activity (Table A); conditions: Cyperus, pre-emergence, Yens, 11.2 kg/ha, 10-14 days, read-out: herbicidal rating (% inhibition)
In short: as §1

[6] = system: Velvetleaf; assay: Pre-emergent herbicidal activity (Table A); conditions: Abutilon theophrasti, pre-emergence, Vele, 11.2 kg/ha, 10-14 days, read-out: herbicidal rating (% inhibition)
In short: as §1

[7] = system: Bygr; assay: plant injury after spraying emerged plants (Table D); parameters: scale not given here
Text: (§2) Topsoil (silt loam) is sieved through a screen having 1.27 cm openings. […] This mixture is steam sterilized and then placed in aluminum pans 6.985 cm deep having ten holes in the bottom each 0.635 cm in diameter. The soil mixture is compacted to a depth of 1.27 cm. from the top of the pan. A predetermined number of seeds of each of several dicotyledonous and monocotyledonous annual plant species and/or vegetative propagules for the perennial plant species are placed on the soil and pressed into the soil surface. The seeds and/or vegetative propagules are covered with 1.27 cm of a mixture of 50% topsoil and 50% of a mixture of Canadian sphagnum peat moss, vermiculite and a wetting agent. The pans are then placed on a capillary mat on a greenhouse bench and subirrigated as needed.
(§3) In the following Table D the legends used to identify the plant species are the same as those used in the preceding Table B.

[8] = system: Rice; assay: as above; parameters: scale not given here
Text: as §2, §3

[9] = system: Mogl; assay: as above; parameters: scale not given here
Text: as §2, §3

[10] = system: Whez; assay: as above; parameters: scale not given here
Text: as §2, §3

[11] = system: Lacg; assay: as above; parameters: scale not given here
Text: as §2, §3

[12] = system: Sobe; assay: as above; parameters: scale not given here
Text: as §2, §3

[13] = system: Grft; assay: as above; parameters: scale not given here
Text: as §2, §3

[14] = system: Prmi; assay: as above; parameters: scale not given here
Text: as §2, §3

[15] = system: Cobu; assay: as above; parameters: scale not given here
Text: as §2, §3

[16] = system: Grso; assay: as above; parameters: scale not given here
Text: as §2, §3

[17] = system: Corn; assay: as above; parameters: scale not given here
Text: as §2, §3

COC(=O)c1c(OC)nc(C(F)(F)F)c(-c2nnc(C)o2)c1CC(C)C [Compound 103, 3-pyridinecarboxylic acid, 2-methoxy-5-(5-methy1-1,3,4-oxadiazo1-2-yl)-4-(2-methylpropyl)-6-(trifluoromethyl)-, methyl ester]
inhibition at 11200 g/ha [1]: 75 to 100% | inhibition at 11200 g/ha [2]: 75 to 100% | inhibition at 11200 g/ha [3]: 0 to 24% | inhibition at 11200 g/ha [4]: 50 to 74% | inhibition at 11200 g/ha [5]: 0 to 24% | inhibition at 11200 g/ha [6]: 75 to 100% | plant injury rating, Bygr ([7]; 0.0701 kg/ha): 0 | plant injury rating, Bygr ([7]; 0.2803 kg/ha): 0 | plant injury rating, Bygr ([7]; 1.1219 kg/ha): 0 | plant injury rating, Bygr ([7]; 5.6050 kg/ha): 0 | plant injury rating, Rice ([8]; 0.0701 kg/ha): 0 | plant injury rating, Rice ([8]; 0.2803 kg/ha): 0 | plant injury rating, Rice ([8]; 1.1219 kg/ha): 0 | plant injury rating, Rice ([8]; 5.6050 kg/ha): 0 | plant injury rating, Mogl ([9]; 0.0701 kg/ha): 0 | plant injury rating, Mogl ([9]; 0.2803 kg/ha): 1 | plant injury rating, Mogl ([9]; 1.1219 kg/ha): 1 | plant injury rating, Mogl ([9]; 5.6050 kg/ha): 2 | plant injury rating, Whez ([10]; 0.0701 kg/ha): 0 | plant injury rating, Whez ([10]; 0.2803 kg/ha): 0 | plant injury rating, Whez ([10]; 1.1219 kg/ha): 0 | plant injury rating, Whez ([10]; 5.6050 kg/ha): 0 | plant injury rating, Lacg ([11]; 0.0701 kg/ha): 0 | plant injury rating, Lacg ([11]; 0.2803 kg/ha): 0 | plant injury rating, Lacg ([11]; 1.1219 kg/ha): 0 | plant injury rating, Lacg ([11]; 5.6050 kg/ha): 2 | plant injury rating, Sobe ([12]; 0.0701 kg/ha): 0 | plant injury rating, Sobe ([12]; 0.2803 kg/ha): 0 | plant injury rating, Sobe ([12]; 1.1219 kg/ha): 0 | plant injury rating, Sobe ([12]; 5.6050 kg/ha): 2 | plant injury rating, Grft ([13]; 0.0701 kg/ha): 0 | plant injury rating, Grft ([13]; 0.2803 kg/ha): 0 | plant injury rating, Grft ([13]; 1.1219 kg/ha): 0 | plant injury rating, Grft ([13]; 5.6050 kg/ha): 0 | plant injury rating, Prmi ([14]; 0.0701 kg/ha): 0 | plant injury rating, Prmi ([14]; 0.2803 kg/ha): 0 | plant injury rating, Prmi ([14]; 1.1219 kg/ha): 0 | plant injury rating, Prmi ([14]; 5.6050 kg/ha): 0 | plant injury rating, Cobu ([15]; 0.0701 kg/ha): 0 | plant injury rating, Cobu ([15]; 0.2803 kg/ha): 0 | plant injury rating, Cobu ([15]; 1.1219 kg/ha): 0 | plant injury rating, Cobu ([15]; 5.6050 kg/ha): 0 | plant injury rating, Grso ([16]; 0.0701 kg/ha): 0 | plant injury rating, Grso ([16]; 0.2803 kg/ha): 0 | plant injury rating, Grso ([16]; 1.1219 kg/ha): 0 | plant injury rating, Grso ([16]; 5.6050 kg/ha): 2 | plant injury rating, Corn ([17]; 0.0701 kg/ha): 0 | plant injury rating, Corn ([17]; 0.2803 kg/ha): 0 | plant injury rating, Corn ([17]; 1.1219 kg/ha): 3 | plant injury rating, Corn ([17]; 5.6050 kg/ha): 3

COC(=O)c1c(OC)nc(C(F)(F)F)c(C(=O)Cl)c1CC1CC1 [Compound 113, 3-pyridinecarboxylic acid, 5-(chlorocarbonyl)-4-(cyclopropylmethyl)-2-methoxy-6-(trifluoromethyl)-, methyl ester]
inhibition at 11200 g/ha [1]: 25 to 49% | inhibition at 11200 g/ha [2]: 75 to 100% | inhibition at 11200 g/ha [3]: 0 to 24% | inhibition at 11200 g/ha [4]: 75 to 100% | inhibition at 11200 g/ha [5]: 0 to 24% | inhibition at 11200 g/ha [6]: 25 to 49% | plant injury rating, Bygr ([7]; 0.2803 kg/ha): 0 | plant injury rating, Bygr ([7]; 1.1210 kg/ha): 0 | plant injury rating, Bygr ([7]; 5.6050 kg/ha): 0 | plant injury rating, Rice ([8]; 0.2803 kg/ha): 0 | plant injury rating, Rice ([8]; 1.1210 kg/ha): 0 | plant injury rating, Rice ([8]; 5.6050 kg/ha): 0 | plant injury rating, Mogl ([9]; 0.2803 kg/ha): 0 | plant injury rating, Mogl ([9]; 1.1210 kg/ha): 0 | plant injury rating, Mogl ([9]; 5.6050 kg/ha): 1 | plant injury rating, Whez ([10]; 0.2803 kg/ha): 0 | plant injury rating, Whez ([10]; 1.1210 kg/ha): 0 | plant injury rating, Whez ([10]; 5.6050 kg/ha): 0 | plant injury rating, Lacg ([11]; 0.2803 kg/ha): 0 | plant injury rating, Lacg ([11]; 1.1210 kg/ha): 0 | plant injury rating, Lacg ([11]; 5.6050 kg/ha): 2 | plant injury rating, Sobe ([12]; 0.2803 kg/ha): 0 | plant injury rating, Sobe ([12]; 1.1210 kg/ha): 0 | plant injury rating, Sobe ([12]; 5.6050 kg/ha): 1 | plant injury rating, Grft ([13]; 0.2803 kg/ha): 0 | plant injury rating, Grft ([13]; 1.1210 kg/ha): 0 | plant injury rating, Grft ([13]; 5.6050 kg/ha): 0 | plant injury rating, Prmi ([14]; 0.2803 kg/ha): 0 | plant injury rating, Prmi ([14]; 1.1210 kg/ha): 0 | plant injury rating, Prmi ([14]; 5.6050 kg/ha): 0 | plant injury rating, Cobu ([15]; 0.2803 kg/ha): 0 | plant injury rating, Cobu ([15]; 1.1210 kg/ha): 0 | plant injury rating, Cobu ([15]; 5.6050 kg/ha): 0 | plant injury rating, Grso ([16]; 0.2803 kg/ha): 0 | plant injury rating, Grso ([16]; 1.1210 kg/ha): 0 | plant injury rating, Grso ([16]; 5.6050 kg/ha): 0 | plant injury rating, Corn ([17]; 0.2803 kg/ha): 0 | plant injury rating, Corn ([17]; 1.1210 kg/ha): 0 | plant injury rating, Corn ([17]; 5.6050 kg/ha): 0
